Test results as given in patent US20230302159A1, “COMPOUNDS AND COMPOSITIONS FOR TUMOR DETECTION AND SURGICAL GUIDANCE” (Cornell University, priority 2020, published 2023).
“And” between values parts separate entries of the source, which are not always exact repeats. Identical values can stand only once.

Legend:
[1] = Optical properties of the CypH dyes: absorbance maximum and extinction coefficient in EtOH (Table 1); assay type: physicochemical; details: for Ex Coeff (M^−1cm^−1) @ Abs Max: at absorbance maximum
Experimental: (§1) Characterization: All new CypH dyes were characterized by proton NMR and mass spectrometry to confirm identity. NMR data was consistent with the structure and mass spectrometry results gave the expected mass of the dye±0.5 amu. An HPLC method was developed (see below) and used to assess dye purity. […] Retention times on the column generally correlated with lipophilicity of the dyes with water soluble dyes containing sulfate groups eluting out earlier (@10.6 min for CypH-3, 6, 9) than CypH-1 (@11.9 min) and the more lipophilic dyes later. Optical properties of the dyes, acid dissociation constants and solubilities were also determined. Synthetic intermediates were also characterized by proton NMR.

[2] = Solubility of the CypH dyes (Table 1); assay type: physicochemical; details: organic solvent or mixture; in EtOH; read-out: Solubility
Experimental: as §1

[3] = pKa measurement by fluorescence intensity in the pH range 2.0-11.0 (plate reader); assay type: physicochemical; details: for pKa: 2 μM in 20 mM phosphate-buffered solution, pH 2.0-11.0, λex=725 nm, λem=785 nm; for pH dependency of fluorescence: different pH solutions
Experimental: (A) The structure of CypH-1 (B) Schematic diagram of the fluorescence activation of CypH-11 by protonation. […] Their fluorescence intensity in the pH range (2.0-11.0) was measured (λex=725 nm and λem=785 nm) using a plate reader. (D) Fluorescence image of CypH-11 and CypH-1 in a 96-well plate at different pHs.
Spectroscopic analysis. Stock solutions (1 mM in DMSO) of CypH-11, CypH-1, and Cy7 were stored at a −30° C. freezer and used for the following experiments. For the pKa measurement, the respective compound was diluted in 20 mM phosphate-buffered solution (PBS, pH 2.0-11.0) to a final concentration of 2 μM. The fluorescence intensity (λex=725 nm and λcm=785 nm) was measured on a plate reader (Tecan Infinite M1000 Pro), and the fluorescence images were recorded with a fluorescence imaging system (Bruker In-vivo F Pro). For the quantum yield measurement, indocyanine green (ICG, Φ=1.2% in water) was used as the standard compound. The respective compound (0.4, 0.8, 1.2, 1.6, and 2.0 μM) in PBS solutions (pH=4.0 and pH=7.4) was measured using a Cary 60 UV-Vis spectrophotometer and Cary Eclipse fluorescence spectrophotometer (Agilent). The slope of fluorescence vs absorbance was compared with that of ICG to calculate the relative quantum yield.

[4] = Absorbance and fluorescence spectra (excitation/emission maxima); assay type: physicochemical
OVASAHO cells = experiment: In vitro fluorescence microscopy and intracellular localization; assay type: cell-based; details: 2 μM, 1 hr; for Pearson value, overlap with the mitochondria tracker: co-staining with mitochondria tracker; for cellular fluorescence image in the presence of dye-containing medium (no washing): without washing
Experimental: Evaluation of CypH-11 in cancer cells. An ovarian cancer cell line, OVASAHO, was used to evaluate the performance of CypH-11, CypH-1, and Cy7. OVASAHO cells were incubated with the respective probe (2 μM) for 1 hr, and the cellular fluorescence images were captured in the presence of the dye-containing medium (FIG. 13A). […] This distinct difference is because of the pH sensitivity of CypH-11 and CypH-1. Both of them have low fluorescence in the cell culture medium (pH=7.4), but their fluorescence is turned on upon entering the cellular acidic compartments. […] After washing with a fresh culture medium, the cell images were captured again (FIG. 19). […] The intracellular distribution of dyes was investigated by co-staining with mitochondrial, lysosomal and nuclear trackers (FIG. 13B).
In vitro fluorescence microscopy. OVASAHO cells were used to compare the cellular performance and cellular distribution of CypH-11, CypH-1, and Cy7. OVASAHO cells (1.0×10^4) were seeded on a 96-well black plate (Corning, NY) and incubated in the supplemented medium for 24 hrs. Compounds (2 μM) were added and the cells were incubated for 1 hr. Before PBS washing, the cellular fluorescence images were captured with a fluorescence microscope (Cy7 filter, excitation: 690-730 nm and emission: 770-850 nm). After PBS washing (3×), the cellular images were captured again. For the co-localization experiment, OVASAHO cells (5.0×10^3) were incubated on a 96 well plate (ibiTreat, 180 μm coverslip, ibidi) with a clear and flat bottom. After treatment with CypH-11 (2 μM) or CypH-1 (2 μM) for 1 hr, the cells were washed with medium (3×). The cells were stained with Mitoview Green (Biotium, Parkway Fremont, CA) for 15 min or Lysoview 488 (Biotium) for 30 min. After washing with medium (3×), cells were further stained with DAPI (Invitrogen) for 10 min. The fluorescence images were captured using a fluorescence microscope (EVOS) after replacing the medium with a fresh cell culture medium. CypH-11 and CypH-1 images were obtained with a Cy7 filter, DAPI images with a DAPI filter (excitation: 352-402 nm and emission: 417-477 nm), Mitoview Green and Lysoview 488 images with a GFP filter (excitation: 457-487 nm and emission: 502-538 nm).

RFP-ovsaho tumors = experiment: In vivo imaging study, spray on about 2 mm subcutaneous RFP-ovsaho tumors (Example 1); parameters: species or system mice; details: for tumor contrast after spray: 2 μM sprayed, no washing
Experimental: In vivo imaging study. The animals inoculated with RFP-ovsaho cells in flank were used for the imaging study. To imitate the morphology of metastasized human ovarian cancer, the tumor size was controlled to 2 mm. The skin was removed prior to the spray of dye (2 μM, in saline). The tumor areas were sprayed and imaged using Cy7 filter set at different time points. RFP images were also acquired for tumor co-registration. The contrast ratio was calculated by [signal of tumor]/[signal of adjacent muscle]. Following the in vitro and cellular validation, we thought that the best candidate, CypH-11, which has excellent fluorescence property in different pH and in cells, could be an ideal agent to augment the detection of small cancerous lesions otherwise unnoticeable to surgeons. To verify the presumption, RFP positive ovsaho ovarian cancer cells were subcutaneously inoculated in mice. When tumors were about 2 mm in size, the skin was removed and the CypH-11 solution (2 μM in saline) was sprayed onto the tumor areas. […] The contrast continued to increase slightly and quickly reached plateau at ˜7 min. The tumor signal is about 150% higher than the adjacent muscle tissues, and the CypH-11 signal co-registered well with the RFP signal. […] In a separate set of experiment, animals were inoculated with two tumors. Each tumor was sprayed either with the prototype dye CypH-1 or CypH-11, and imaged simultaneously.

[5] = conditions not stated, previously published lead probe

| SMILES | Ex Coeff (M^−1cm^−1) @ Abs Max [1] | Abs. Max (nm) in EtOH [1] | Solubility [2] | pKa [3] | normalized fluorescence relative to that of CypH-1 ([3]; at pH 6.0-6.5, in solution) | pH dependency of fluorescence [3] | Emmax / emission maximum ([4]; 2 μM, pH 5.0 phosphate buffer) | Exmax / absorbance maximum ([4]; 2 μM, pH 5.0 phosphate buffer) | cellular fluorescence after washing (OVASAHO cells) | Pearson value, overlap with the mitochondria tracker (OVASAHO cells) | cellular fluorescence image in the presence of dye-containing medium (no washing) (OVASAHO cells) | time to contrast plateau (RFP-ovsaho tumors; 2 μM in saline, sprayed) | tumor signal higher than the adjacent muscle tissues (RFP-ovsaho tumors; 2 μM in saline, sprayed) | time to fluorescent signal highlighting the tumor after spray (RFP-ovsaho tumors; 2 μM in saline, sprayed, about 2 mm tumors) | tumor contrast after spray (RFP-ovsaho tumors) | emission maximum [4, 5] | excitation maximum [4, 5] |
| --- | --- | --- | --- | --- | --- | --- | --- | --- | --- | --- | --- | --- | --- | --- | --- | --- | --- |
| CC(C)N(C)c1ccc(OC2=C(/C=C/C3=[N+](C(C)C)c4ccccc4C3(C)C)CCC/C2=C\C=C2\N(C(C)C)c3ccccc3C2(C)C)cc1.[I-] [CypH-11] | 233,800 M^−1cm^−1 | 771 nm | > 1000 µM | 6 | about 3.4 fold | low fluorescence in neutral and basic solutions, but strong fluorescence in acidic solutions | 785 nm | 766 nm and 765 nm | high fluorescence | 0.70 | Strong intracellular fluorescence and low medium fluorescence | ~7 min | about 150% | within a minute | near instant signal enhancement |  |  |
| CN(C)c1ccc(OC2=C(/C=C/C3=[N+](C)c4ccccc4C3(C)C)CCC/C2=C\C=C2\N(C)c3ccccc3C2(C)C)cc1.[Cl-] [CypH-1, reference compound] | 74,450 M^−1cm^−1 | 760 nm | > 1000 µM | 4.7 |  | low fluorescence in neutral and basic solutions, but strong fluorescence in acidic solutions |  |  | high fluorescence | 0.90 | Strong intracellular fluorescence and low medium fluorescence |  |  |  | minimally contrast | 777 nm | 760 nm |
